Source: patent publication US20060258729A1, “Antibacterial pyrazole carboxylic acid hydrazides” (priority 2002, published 2006)

How the values were obtained:
[1] = tested on: Escherichia coli strain J53; assay: Inhibition of bacterial growth (MIC), Ec; assay type: cell-based; conditions: 16 to 18 hours, 37° C.
Procedure: (§1) Each compound was assayed against a panel of a strain of Bacillus subtilis, of strains of antibiotic-resistant and sensitive Enterococcus and Staphylococcus species, and of a strain of the Gram-negative bacterium Escherichia coli. Compounds were dissolved in DMSO at 100× the desired highest concentration and added to one well of a 96-well microassay plate. Two-fold serial drug dilutions were made across the plate in DMSO to yield 11 concentrations (usually 80-0.078 μg/mL) plus an untreated control. Drugs were then transferred to fresh plates using 1.5 μL per well. Log phase cultures were diluted to yield a concentration of 1×10^5 colony forming units/mL in either LB or BHI medium and transferred to the plates containing drug for a final volume of 150 μL. Each well, including the DMSO controls, contained a final concentration of 1% DMSO. Plates were incubated with shaking at 37° C. for 16 to 18 hours. Cell growth was determined by measuring optical density (570 nm, 1 cm path length) in a microplate reader. MIC (minimum inhibitory concentration) is equivalent to the lowest concentration at which growth is not observed. The bacterial strains and MIC determinations have been well characterized and are described elsewhere (Tarantino et al., Antimicrob. Agents Chemother., 43: 1982-1987 (1999); Daly et al., Antimicrob. Agents Chemother., 44: 2217-2221 (2000)).

[2] = tested on: Enterococcus faecalis strain 29212; assay: Inhibition of bacterial growth (MIC), Efcl; assay type: cell-based; conditions: 16 to 18 hours, 37° C.
Procedure: as §1

S. aureus Smith strain = assay: Inhibition of bacterial growth (MIC), Sm; assay type: cell-based, Staphylococcus aureus; conditions: 16 to 18 hours, 37° C.
Procedure: as §1

B. subtilis pol IIIC = molecular target: T1, B. subtilis pol IIIC (Bacillus subtilis, UniProt P13267); assay: DNA polymerase assay, B. subtilis pol IIIC; assay type: biochemical; conditions: 80 μg/mL (190-260 μM) final concentration; all four dNTPs
T1 construct: made in house
Procedure: Recombinant, purified pol IIIC and pol IIIE from Bacillus subtilis were obtained using known methods (Hammond et al., Gene 98: 29-36 (1991), regarding pol IIIC; Barnes et al., J. Bacteriol. 184, 3834-3838 (2002), regarding pol IIIE). Recombinant, purified pol IIIE from Escherichia coli was obtained from a commercial source (Enzyco, Denver, Colo.). The enzyme assays were performed in 96-well plate format using the same assay mix for all three enzymes. […] Dilutions of compounds were added to the plate in 1% DMSO (1 μL/well). Assays were initiated by the addition of 0.025 to 0.06 units of enzyme (1 unit is the amount required to incorporate 250 pmoles of [^3H] dTMP in a standard assay), incubated for 10 min at 30° C. and terminated by the addition of 200 μL of cold 10% trichloroacetic acid, 10 mM sodium pyrophosphate. Precipitated labeled DNA was collected on glass fiber filter plates that had been pre-wet with ice cold 1 M HCl, 100 mM sodium pyrophosphate. The plates were washed with the HCl solution followed by ice cold 90% ethanol and then dried and counted in a liquid scintillation counter. […] In addition, percent inhibition values are calculated as the percent reduction in the activity of a DMSO (diluent) control.

[3] = tested on: Bacillus subtilis strain BD54; assay: Inhibition of bacterial growth (MIC), Bs; assay type: cell-based; conditions: 16 to 18 hours, 37° C.
Procedure: as §1

[4] = tested on: methicillin-resistant S. aureus strain 1094; assay: Inhibition of bacterial growth (MIC), MRSA; assay type: cell-based, Staphylococcus aureus; conditions: 16 to 18 hours, 37° C.
Procedure: as §1

[5] = tested on: E. faecium clinical isolate; assay: Inhibition of bacterial growth (MIC), Efcm; assay type: cell-based; conditions: 16 to 18 hours, 37° C.
Procedure: as §1

E. coli pol IIIE = molecular target: T2, E. coli pol IIIE (Escherichia coli, UniProt P10443); assay: DNA polymerase assay, E. coli pol IIIE; assay type: biochemical; conditions: 80 μg/mL (190-260 μM) final concentration; all four dNTPs
T2 construct: purchased Enzyco, Denver, Colo
Procedure: (§2) Recombinant, purified pol IIIC and pol IIIE from Bacillus subtilis were obtained using known methods (Hammond et al., Gene 98: 29-36 (1991), regarding pol IIIC; Barnes et al., J. Bacteriol. 184, 3834-3838 (2002), regarding pol IIIE). Recombinant, purified pol IIIE from Escherichia coli was obtained from a commercial source (Enzyco, Denver, Colo.). The enzyme assays were performed in 96-well plate format using the same assay mix for all three enzymes. Each 25 μL assay contained 30 mM Tris, pH 7.5, 10 mM magnesium acetate, 4 mM dithiothreitol, 20% glycerol, with 10 μM dATP, dCTP, dGTP and dTTP (3H-labelled at 1.44 Ci/mmole) and 0.4 mg/mL activated calf thymus DNA as substrates. Dilutions of compounds were added to the plate in 1% DMSO (1 μL/well). Assays were initiated by the addition of 0.025 to 0.06 units of enzyme (1 unit is the amount required to incorporate 250 pmoles of [^3H] dTMP in a standard assay), incubated for 10 min at 30° C. and terminated by the addition of 200 μL of cold 10% trichloroacetic acid, 10 mM sodium pyrophosphate. Precipitated labeled DNA was collected on glass fiber filter plates that had been pre-wet with ice cold 1 M HCl, 100 mM sodium pyrophosphate. The plates were washed with the HCl solution followed by ice cold 90% ethanol and then dried and counted in a liquid scintillation counter. The calculated IC50 is the concentration needed to inhibit 50% of the DNA polymerase activity in the presence of all four dNTP substrates. In addition, percent inhibition values are calculated as the percent reduction in the activity of a DMSO (diluent) control.

[6] = tested on: Staphylococcus aureus strain IP 8; assay: Inhibition of bacterial growth (MIC), Sa; assay type: cell-based; conditions: 16 to 18 hours, 37° C.
Procedure: as §1

[7] = tested on: vancomycin-resistant Enterococcus strain B42762; assay: Inhibition of bacterial growth (MIC), VRE; assay type: cell-based; conditions: 16 to 18 hours, 37° C.
Procedure: as §1

B. subtilis pol IIIE = molecular target: T3, B. subtilis pol IIIE (Bacillus subtilis, UniProt O34623); assay: DNA polymerase assay, B. subtilis pol IIIE; assay type: biochemical; conditions: 80 μg/mL (190-260 μM) final concentration; all four dNTPs
T3 construct: made in house
Procedure: as §2

T3 sequence (O34623 whole entry): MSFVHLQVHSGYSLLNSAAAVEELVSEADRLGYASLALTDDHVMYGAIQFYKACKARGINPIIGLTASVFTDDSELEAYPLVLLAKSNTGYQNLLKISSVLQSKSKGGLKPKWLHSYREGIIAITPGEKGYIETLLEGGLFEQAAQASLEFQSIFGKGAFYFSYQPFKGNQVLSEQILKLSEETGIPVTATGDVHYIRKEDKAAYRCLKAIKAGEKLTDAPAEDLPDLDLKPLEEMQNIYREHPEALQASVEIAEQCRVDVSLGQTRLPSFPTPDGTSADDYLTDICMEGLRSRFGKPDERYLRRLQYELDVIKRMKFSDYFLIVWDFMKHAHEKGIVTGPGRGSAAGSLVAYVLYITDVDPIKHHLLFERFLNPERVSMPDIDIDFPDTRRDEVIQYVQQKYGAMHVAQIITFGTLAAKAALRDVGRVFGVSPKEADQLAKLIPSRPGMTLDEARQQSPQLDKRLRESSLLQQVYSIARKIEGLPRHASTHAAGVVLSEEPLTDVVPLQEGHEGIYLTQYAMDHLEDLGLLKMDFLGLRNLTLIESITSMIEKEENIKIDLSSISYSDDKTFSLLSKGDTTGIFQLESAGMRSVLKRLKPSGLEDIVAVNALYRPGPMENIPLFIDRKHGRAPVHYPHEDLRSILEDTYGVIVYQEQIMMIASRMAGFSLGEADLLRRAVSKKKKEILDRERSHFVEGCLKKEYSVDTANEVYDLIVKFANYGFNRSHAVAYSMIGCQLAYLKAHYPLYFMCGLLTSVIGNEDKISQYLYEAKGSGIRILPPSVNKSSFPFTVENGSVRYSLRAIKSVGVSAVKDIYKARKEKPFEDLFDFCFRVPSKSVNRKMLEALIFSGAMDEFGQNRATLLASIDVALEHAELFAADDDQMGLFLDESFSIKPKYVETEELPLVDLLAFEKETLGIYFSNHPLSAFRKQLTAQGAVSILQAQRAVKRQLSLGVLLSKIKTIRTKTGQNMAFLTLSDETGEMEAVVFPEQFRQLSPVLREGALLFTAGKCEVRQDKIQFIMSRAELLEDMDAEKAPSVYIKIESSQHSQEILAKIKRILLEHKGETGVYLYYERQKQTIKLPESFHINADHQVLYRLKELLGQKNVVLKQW
T2 sequence (P10443 whole entry): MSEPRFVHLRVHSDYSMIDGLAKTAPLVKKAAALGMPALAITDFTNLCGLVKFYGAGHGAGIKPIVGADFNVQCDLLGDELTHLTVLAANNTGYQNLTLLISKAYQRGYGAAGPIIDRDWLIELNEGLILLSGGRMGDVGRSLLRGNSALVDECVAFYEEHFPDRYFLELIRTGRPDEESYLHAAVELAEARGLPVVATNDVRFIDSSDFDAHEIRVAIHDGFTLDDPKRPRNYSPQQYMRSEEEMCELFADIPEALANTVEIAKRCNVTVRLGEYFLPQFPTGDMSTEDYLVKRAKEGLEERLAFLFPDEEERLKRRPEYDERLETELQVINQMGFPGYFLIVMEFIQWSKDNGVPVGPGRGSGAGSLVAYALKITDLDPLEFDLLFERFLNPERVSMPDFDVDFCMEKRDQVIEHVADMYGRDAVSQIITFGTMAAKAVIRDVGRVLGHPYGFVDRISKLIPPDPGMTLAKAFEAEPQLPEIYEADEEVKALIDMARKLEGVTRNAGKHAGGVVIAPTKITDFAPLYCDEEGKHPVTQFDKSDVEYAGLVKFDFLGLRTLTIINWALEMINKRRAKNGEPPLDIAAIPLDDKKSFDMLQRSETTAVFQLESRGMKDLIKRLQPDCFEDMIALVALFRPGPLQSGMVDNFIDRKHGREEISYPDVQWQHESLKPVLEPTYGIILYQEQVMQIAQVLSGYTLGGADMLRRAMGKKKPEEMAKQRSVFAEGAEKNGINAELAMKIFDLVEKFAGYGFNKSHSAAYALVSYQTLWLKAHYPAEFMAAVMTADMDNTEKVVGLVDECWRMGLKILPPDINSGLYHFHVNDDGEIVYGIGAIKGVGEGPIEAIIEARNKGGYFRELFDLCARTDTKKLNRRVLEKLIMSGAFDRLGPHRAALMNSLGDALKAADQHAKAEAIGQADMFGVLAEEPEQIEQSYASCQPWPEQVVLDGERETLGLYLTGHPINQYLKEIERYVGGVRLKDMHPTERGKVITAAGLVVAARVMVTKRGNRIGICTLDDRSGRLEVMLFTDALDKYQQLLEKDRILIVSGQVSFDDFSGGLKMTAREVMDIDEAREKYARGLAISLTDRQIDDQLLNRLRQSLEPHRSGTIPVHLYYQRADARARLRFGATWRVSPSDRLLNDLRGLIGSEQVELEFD
T1 sequence (P13267 whole entry): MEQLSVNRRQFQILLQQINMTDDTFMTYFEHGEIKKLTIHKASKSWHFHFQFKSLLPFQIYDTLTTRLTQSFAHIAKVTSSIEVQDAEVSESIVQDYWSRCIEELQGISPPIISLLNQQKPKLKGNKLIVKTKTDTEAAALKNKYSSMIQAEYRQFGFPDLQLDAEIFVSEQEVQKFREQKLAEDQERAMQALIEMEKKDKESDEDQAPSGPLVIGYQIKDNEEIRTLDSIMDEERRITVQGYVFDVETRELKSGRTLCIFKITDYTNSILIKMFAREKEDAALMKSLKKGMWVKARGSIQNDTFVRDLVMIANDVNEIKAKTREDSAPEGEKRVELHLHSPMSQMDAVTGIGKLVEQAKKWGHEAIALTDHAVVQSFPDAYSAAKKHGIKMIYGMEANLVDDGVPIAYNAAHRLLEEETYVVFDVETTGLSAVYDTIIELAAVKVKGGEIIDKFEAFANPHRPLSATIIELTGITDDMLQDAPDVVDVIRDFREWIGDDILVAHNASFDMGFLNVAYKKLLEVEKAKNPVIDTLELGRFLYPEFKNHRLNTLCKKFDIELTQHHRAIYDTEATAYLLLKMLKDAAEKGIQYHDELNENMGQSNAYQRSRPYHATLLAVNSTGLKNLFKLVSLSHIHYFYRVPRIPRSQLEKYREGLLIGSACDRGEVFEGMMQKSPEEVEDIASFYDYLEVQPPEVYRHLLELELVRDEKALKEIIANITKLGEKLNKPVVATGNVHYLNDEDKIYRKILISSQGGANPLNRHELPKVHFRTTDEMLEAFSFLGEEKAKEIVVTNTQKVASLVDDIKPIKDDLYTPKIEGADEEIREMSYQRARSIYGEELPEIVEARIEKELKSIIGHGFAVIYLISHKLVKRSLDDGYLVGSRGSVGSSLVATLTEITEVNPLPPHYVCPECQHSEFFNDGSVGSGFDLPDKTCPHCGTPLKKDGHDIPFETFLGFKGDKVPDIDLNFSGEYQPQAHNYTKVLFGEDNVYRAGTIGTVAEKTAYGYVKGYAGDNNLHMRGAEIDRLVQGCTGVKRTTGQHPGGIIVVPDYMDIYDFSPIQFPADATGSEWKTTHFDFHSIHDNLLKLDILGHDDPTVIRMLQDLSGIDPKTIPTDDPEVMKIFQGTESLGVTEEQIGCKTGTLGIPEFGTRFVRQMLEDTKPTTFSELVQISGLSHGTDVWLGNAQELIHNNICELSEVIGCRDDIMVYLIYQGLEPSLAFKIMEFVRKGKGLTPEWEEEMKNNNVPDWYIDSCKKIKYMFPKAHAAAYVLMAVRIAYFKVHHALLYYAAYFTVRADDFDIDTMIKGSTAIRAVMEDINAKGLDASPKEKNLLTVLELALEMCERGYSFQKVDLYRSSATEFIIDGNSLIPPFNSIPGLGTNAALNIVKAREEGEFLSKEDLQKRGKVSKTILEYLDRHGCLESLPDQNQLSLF

Structure (SMILES): O=C(NN=Cc1cc(Br)ccc1O)c1cc(-c2ccccc2)n[nH]1 [Compound 6]
- Minimum Inhibitory Concentration for Bacterial Growth, Ec [1]: >80 µg/mL
- Minimum Inhibitory Concentration for Bacterial Growth, Efcl [2]: 8 µg/mL
- Minimum Inhibitory Concentration for Bacterial Growth, Sm (S. aureus Smith strain): >80 µg/mL
- Percent Enzymatic Inhibition B. subtilis pol IIIC (B. subtilis pol IIIC): 11.3%
- Minimum Inhibitory Concentration for Bacterial Growth, Bs [3]: >80 µg/mL
- Minimum Inhibitory Concentration for Bacterial Growth, MRSA [4]: 40 µg/mL
- Minimum Inhibitory Concentration for Bacterial Growth, Efcm [5]: 10 µg/mL
- Percent Enzymatic Inhibition E. coli pol IIIE (E. coli pol IIIE): 9.0%
- Minimum Inhibitory Concentration for Bacterial Growth, Sa [6]: 10 µg/mL
- Minimum Inhibitory Concentration for Bacterial Growth, VRE [7]: 8 µg/mL
- Percent Enzymatic Inhibition B. subtilis pol IIIE (B. subtilis pol IIIE): 7.7%

Structure (SMILES): COc1cccc(C=NNC(=O)c2cc(-c3ccc(C)cc3)n[nH]2)c1O [Compound 8]
- Minimum Inhibitory Concentration for Bacterial Growth, Ec [1]: >80 µg/mL
- Minimum Inhibitory Concentration for Bacterial Growth, Efcl [2]: >80 µg/mL
- Minimum Inhibitory Concentration for Bacterial Growth, Sm (S. aureus Smith strain): >80 µg/mL
- Percent Enzymatic Inhibition B. subtilis pol IIIC (B. subtilis pol IIIC): 19.7%
- Minimum Inhibitory Concentration for Bacterial Growth, Bs [3]: >80 µg/mL
- Minimum Inhibitory Concentration for Bacterial Growth, MRSA [4]: >80 µg/mL
- Minimum Inhibitory Concentration for Bacterial Growth, Efcm [5]: >80 µg/mL
- Minimum Inhibitory Concentration for Bacterial Growth, Sa [6]: >80 µg/mL
- Minimum Inhibitory Concentration for Bacterial Growth, VRE [7]: >80 µg/mL

Structure (SMILES): O=C(NN=Cc1ccccc1O)c1cc(-c2ccccc2)n[nH]1 [Compound 9]
- Minimum Inhibitory Concentration for Bacterial Growth, Ec [1]: >80 µg/mL
- Minimum Inhibitory Concentration for Bacterial Growth, Efcl [2]: >80 µg/mL
- Minimum Inhibitory Concentration for Bacterial Growth, Sm (S. aureus Smith strain): >80 µg/mL
- Minimum Inhibitory Concentration for Bacterial Growth, Bs [3]: >80 µg/mL
- Minimum Inhibitory Concentration for Bacterial Growth, MRSA [4]: >80 µg/mL
- Minimum Inhibitory Concentration for Bacterial Growth, Efcm [5]: >80 µg/mL
- Minimum Inhibitory Concentration for Bacterial Growth, Sa [6]: >80 µg/mL
- Minimum Inhibitory Concentration for Bacterial Growth, VRE [7]: >80 µg/mL

Structure (SMILES): COc1cccc(-c2cc(C(=O)NN=Cc3cccc(O)c3)[nH]n2)c1 [Compound 10]
- Minimum Inhibitory Concentration for Bacterial Growth, Ec [1]: >80 µg/mL
- Minimum Inhibitory Concentration for Bacterial Growth, Efcl [2]: >80 µg/mL
- Minimum Inhibitory Concentration for Bacterial Growth, Sm (S. aureus Smith strain): >80 µg/mL
- Percent Enzymatic Inhibition B. subtilis pol IIIC (B. subtilis pol IIIC): Inactive
- Minimum Inhibitory Concentration for Bacterial Growth, Bs [3]: >80 µg/mL
- Minimum Inhibitory Concentration for Bacterial Growth, MRSA [4]: >80 µg/mL
- Minimum Inhibitory Concentration for Bacterial Growth, Efcm [5]: >80 µg/mL
- Percent Enzymatic Inhibition E. coli pol IIIE (E. coli pol IIIE): Inactive
- Minimum Inhibitory Concentration for Bacterial Growth, Sa [6]: >80 µg/mL
- Minimum Inhibitory Concentration for Bacterial Growth, VRE [7]: >80 µg/mL
- Percent Enzymatic Inhibition B. subtilis pol IIIE (B. subtilis pol IIIE): 9.6%

Structure (SMILES): Cc1ccc(C=NNC(=O)c2cc(-c3ccccc3)n[nH]2)cc1 [Compound 11]
- Minimum Inhibitory Concentration for Bacterial Growth, Ec [1]: >80 µg/mL
- Minimum Inhibitory Concentration for Bacterial Growth, Efcl [2]: >80 µg/mL
- Minimum Inhibitory Concentration for Bacterial Growth, Sm (S. aureus Smith strain): >80 µg/mL
- Percent Enzymatic Inhibition B. subtilis pol IIIC (B. subtilis pol IIIC): 1.3%
- Minimum Inhibitory Concentration for Bacterial Growth, Bs [3]: >80 µg/mL
- Minimum Inhibitory Concentration for Bacterial Growth, MRSA [4]: >80 µg/mL
- Minimum Inhibitory Concentration for Bacterial Growth, Efcm [5]: >80 µg/mL
- Percent Enzymatic Inhibition E. coli pol IIIE (E. coli pol IIIE): Inactive
- Minimum Inhibitory Concentration for Bacterial Growth, Sa [6]: >80 µg/mL
- Minimum Inhibitory Concentration for Bacterial Growth, VRE [7]: >80 µg/mL
- Percent Enzymatic Inhibition B. subtilis pol IIIE (B. subtilis pol IIIE): 16.7%

Structure (SMILES): CCCCc1cc(C=NNC(=O)c2cc(-c3ccccc3)n[nH]2)cc(CCCC)c1O [Compound 12]
- Minimum Inhibitory Concentration for Bacterial Growth, Ec [1]: >80 µg/mL
- Minimum Inhibitory Concentration for Bacterial Growth, Efcl [2]: >80 µg/mL
- Minimum Inhibitory Concentration for Bacterial Growth, Sm (S. aureus Smith strain): >80 µg/mL
- Percent Enzymatic Inhibition B. subtilis pol IIIC (B. subtilis pol IIIC): Inactive
- Minimum Inhibitory Concentration for Bacterial Growth, Bs [3]: >80 µg/mL
- Minimum Inhibitory Concentration for Bacterial Growth, MRSA [4]: >80 µg/mL
- Minimum Inhibitory Concentration for Bacterial Growth, Efcm [5]: >80 µg/mL
- Percent Enzymatic Inhibition E. coli pol IIIE (E. coli pol IIIE): 7.2%
- Minimum Inhibitory Concentration for Bacterial Growth, Sa [6]: >80 µg/mL
- Minimum Inhibitory Concentration for Bacterial Growth, VRE [7]: >80 µg/mL
- Percent Enzymatic Inhibition B. subtilis pol IIIE (B. subtilis pol IIIE): 7.6%

Structure (SMILES): COc1ccc(-c2cc(C(=O)NN=Cc3ccccc3)[nH]n2)cc1 [Compound 13]
- Minimum Inhibitory Concentration for Bacterial Growth, Ec [1]: >80 µg/mL
- Minimum Inhibitory Concentration for Bacterial Growth, Efcl [2]: >80 µg/mL
- Minimum Inhibitory Concentration for Bacterial Growth, Sm (S. aureus Smith strain): >80 µg/mL
- Percent Enzymatic Inhibition B. subtilis pol IIIC (B. subtilis pol IIIC): 2.9%
- Minimum Inhibitory Concentration for Bacterial Growth, Bs [3]: >80 µg/mL
- Minimum Inhibitory Concentration for Bacterial Growth, MRSA [4]: >80 µg/mL
- Minimum Inhibitory Concentration for Bacterial Growth, Efcm [5]: >80 µg/mL
- Percent Enzymatic Inhibition E. coli pol IIIE (E. coli pol IIIE): 3.4%
- Minimum Inhibitory Concentration for Bacterial Growth, Sa [6]: >80 µg/mL
- Minimum Inhibitory Concentration for Bacterial Growth, VRE [7]: >80 µg/mL
- Percent Enzymatic Inhibition B. subtilis pol IIIE (B. subtilis pol IIIE): Inactive

Structure (SMILES): CCN1C(=O)C(=NNC(=O)c2cc(-c3ccccc3)n[nH]2)c2ccccc21 [Compound 20]
- Percent Enzymatic Inhibition B. subtilis pol IIIC (B. subtilis pol IIIC): 0.2%
- Percent Enzymatic Inhibition E. coli pol IIIE (E. coli pol IIIE): Inactive
- Percent Enzymatic Inhibition B. subtilis pol IIIE (B. subtilis pol IIIE): 0.5%

Structure (SMILES): CCN1C(=O)C(=NNC(=O)c2cc(-c3cccc(-c4ccccc4)c3)n[nH]2)c2ccccc21 [Compound 21]
- Minimum Inhibitory Concentration for Bacterial Growth, Ec [1]: >80 µg/mL
- Minimum Inhibitory Concentration for Bacterial Growth, Efcl [2]: >80 µg/mL
- Minimum Inhibitory Concentration for Bacterial Growth, Sm (S. aureus Smith strain): >80 µg/mL
- Minimum Inhibitory Concentration for Bacterial Growth, Bs [3]: >80 µg/mL
- Minimum Inhibitory Concentration for Bacterial Growth, MRSA [4]: >80 µg/mL
- Minimum Inhibitory Concentration for Bacterial Growth, Efcm [5]: >80 µg/mL
- Minimum Inhibitory Concentration for Bacterial Growth, Sa [6]: >80 µg/mL
- Minimum Inhibitory Concentration for Bacterial Growth, VRE [7]: >80 µg/mL
